Experimental data: patent publication US20260053811A1, “METHODS OF TREATING HYPERTENSION IN OBESE SUBJECTS” (Mineralys Therapeutics, Inc., priority 2022, published 2026)
Marks after values point to notes of the source that are not given here.

Test system: hypertensive subjects
Assay: Seated automated office blood pressure (AOBP) in randomized, placebo-controlled, dose-ranging study
Format: in vivo, human
Set-up: Difference from placebo in change in blood pressure: unit not given here
Procedure: A randomized, double-blinded, placebo-controlled, dose-ranging, multicenter study was conducted to evaluate the effect of orally administered Compound A HBr on blood pressure for the treatment of hypertension in male and female subjects ≥18 years of age.
The study consists of two parts. For enrollment into Part 1 of the study, a subject's value of plasma renin activity (PRA) must be ≤1 ng/mL/h based on morning measurement. If the value of PRA >1 ng/mL/h based on morning measurement, then subjects may be eligible to enter Part 2 of the study.
For Part 1, 163 enrolled subjects ≥18 years of age were randomized into 6 equal treatment groups (1:1:1:1:1:1) to 12.5 mg BID, 25 mg BID, 12.5 mg QD, 50 mg QD, 100 mg QD, or placebo. After a review of interim clinical data, the 2 lowest dose levels (12.5 mg QD and 12.5 mg BID) were stopped for future randomization due to a lack of consistent meaningful reduction of blood pressure, but the patients randomized to that point remained in the study through completion. Thus, after the review of interim clinical data, subjects were randomized into 4 equal treatment groups (1:1:1:1) to 25 mg BID, 50 mg QD, 100 mg QD, or placebo.
For Part 2, 36 enrolled subjects ≥18 years of age were randomized (5:1) to either 100 mg QD Compound A HBr or placebo such that the Compound A HBr treatment group consisted of approximately 30 subjects and the placebo treatment group will consist of approximately 6 subjects.
Subjects orally administered the assigned study drug (Compound A HBr or placebo) according to the assigned dosing regimen for 8 weeks beginning on Study Day 1. All subjects in Part 1 (regardless of dosing group) received BID dosing to preserve the integrity of the blind; active drug is administered as the morning dose for all QD dose groups. Subjects returned to the research facility or were seen by the clinical investigator or approved home health care professional at the end of Study Weeks 1, 2, 3, 4, 5, 6, 7, and 8 (±2 days) for protocol-defined efficacy and safety assessments and procedures, assessment of adverse events (AEs), and confirmation of compliance with study drug usage. Subjects also completed a telephone visit and blood pressure (BP) check at home approximately 3 days post last dose of study drug. Subjects attended up to 14 full clinic visits, including a pre-Screening visit, a Screening/start of Placebo Run-in visit, a second visit during Placebo Run-in, a clinic visit to initiate the ABPM procedure, a Randomization visit, 8 weekly visits during double-blind treatment, and an end-of-study visit scheduled 4 weeks after the last study treatment for final efficacy and safety assessments.
An automated oscillometric sphygmomanometer device was used to measure the subjects' systolic and diastolic blood pressure in office after approximately 5 minutes of rest in the seated position.
The primary endpoint is the change in office-measured (mean of last 2 of 5 unattended measurements using an automated oscillometric sphygmomanometer device after approximately 5 minutes of rest in the seated position) systolic blood pressure (SBP) from baseline to the end of Study Week 8.
Secondary endpoints of this study were: • (a) Change in 24-hour ambulatory blood pressure monitoring (ABPM) parameters (systolic and diastolic) from baseline to the end of Study Week 7. • (b) Change in office-measured SBP from baseline to the end of Study Weeks 1, 2, 3, 4, 5, 6, and 7. • (c) Change in office-measured diastolic blood pressure (DBP) from baseline to the end of Study Weeks 1, 2, 3, 4, 5, 6, 7, and 8. • (d) Proportion of subjects who achieve office-measured BP of ≤130/80 mm Hg by the end of Study Week 8.

[1] = 100 mg QD Part 1, Week 8, Parts 1 & 2 model, FAS

CC(=O)N[C@H]1CC[C@H](NC(=O)CN2CCN(c3nncc(-c4ccc(C)cc4)n3)CC2)CC1 [Compound A HBr]
Placebo-adjusted reduction in AOBP SBP, concomitant use of thiazide diuretics (50 mg QD, Part 1, Week 8): −12.9 mmHg | Difference from placebo in change in blood pressure (50 mg QD, Thiazide No): −4.3 | Difference from placebo in change in blood pressure (50 mg QD, Thiazide Yes): −13.2* | Seated AOBP DBP change from baseline (CFB), Mean (SD) (50 mg QD, Week 1, Part 1, FAS): −4.34 (8.86) mmHg | Seated AOBP DBP, Mean (SD) (50 mg QD, Week 1, Part 1, FAS): 80.54 (7.58) mmHg | Seated AOBP SBP change from baseline (CFB), Mean (SD) (50 mg QD, Week 1, Part 1, FAS): −8.32 (14.27) mmHg | Seated AOBP SBP, Mean (SD) (50 mg QD, Week 1, Part 1, FAS): 133.50 (12.23) mmHg | Seated AOBP DBP change from baseline (CFB), Mean (SD) (50 mg QD, Week 2, Part 1, FAS): −5.91 (7.38) mmHg | Seated AOBP DBP, Mean (SD) (50 mg QD, Week 2, Part 1, FAS): 78.96 (8.27) mmHg | Seated AOBP SBP change from baseline (CFB), Mean (SD) (50 mg QD, Week 2, Part 1, FAS): −9.54 (13.78) mmHg | Seated AOBP SBP, Mean (SD) (50 mg QD, Week 2, Part 1, FAS): 132.29 (10.55) mmHg | Seated AOBP DBP change from baseline (CFB), Mean (SD) (50 mg QD, Week 3, Part 1, FAS): −3.84 (8.83) mmHg | Seated AOBP DBP, Mean (SD) (50 mg QD, Week 3, Part 1, FAS): 81.04 (9.15) mmHg | Seated AOBP SBP change from baseline (CFB), Mean (SD) (50 mg QD, Week 3, Part 1, FAS): −9.50 (16.67) mmHg | Seated AOBP SBP, Mean (SD) (50 mg QD, Week 3, Part 1, FAS): 132.32 (13.45) mmHg | LSM Δ with Placebo, seated AOBP DBP (MMRM) (50 mg QD, Week 4, Part 1, FAS): −3.95 mmHg | Modelled (MMRM) LSM (SEM) change from baseline, seated AOBP DBP (50 mg QD, Week 4, Part 1, FAS): −4.49 (1.41) mmHg | Seated AOBP DBP change from baseline (CFB), Mean (SD) (50 mg QD, Week 4, Part 1, FAS): −5.30 (8.33) mmHg | Seated AOBP DBP, Mean (SD) (50 mg QD, Week 4, Part 1, FAS): 79.57 (8.36) mmHg | Seated AOBP SBP change from baseline (CFB), Mean (SD) (50 mg QD, Week 4, Part 1, FAS): −9.07 (15.77) mmHg | Seated AOBP SBP, Mean (SD) (50 mg QD, Week 4, Part 1, FAS): 132.75 (11.85) mmHg | Seated AOBP DBP change from baseline (CFB), Mean (SD) (50 mg QD, Week 5, Part 1, FAS): −6.10 (7.22) mmHg | Seated AOBP DBP, Mean (SD) (50 mg QD, Week 5, Part 1, FAS): 78.58 (7.53) mmHg | Seated AOBP SBP change from baseline (CFB), Mean (SD) (50 mg QD, Week 5, Part 1, FAS): −8.38 (15.19) mmHg | Seated AOBP SBP, Mean (SD) (50 mg QD, Week 5, Part 1, FAS): 134.27 (15.39) mmHg | Seated AOBP DBP change from baseline (CFB), Mean (SD) (50 mg QD, Week 6, Part 1, FAS): −6.26 (8.48) mmHg | Seated AOBP DBP, Mean (SD) (50 mg QD, Week 6, Part 1, FAS): 78.63 (8.17) mmHg | Seated AOBP SBP change from baseline (CFB), Mean (SD) (50 mg QD, Week 6, Part 1, FAS): −10.72 (14.86) mmHg | Seated AOBP SBP, Mean (SD) (50 mg QD, Week 6, Part 1, FAS): 131.11 (12.49) mmHg | Seated AOBP DBP change from baseline (CFB), Mean (SD) (50 mg QD, Week 7, Part 1, FAS): −3.75 (11.03) mmHg | Seated AOBP DBP, Mean (SD) (50 mg QD, Week 7, Part 1, FAS): 80.88 (11.41) mmHg | Seated AOBP SBP change from baseline (CFB), Mean (SD) (50 mg QD, Week 7, Part 1, FAS): −7.69 (18.91) mmHg | Seated AOBP SBP, Mean (SD) (50 mg QD, Week 7, Part 1, FAS): 133.19 (16.39) mmHg | LSM Δ from Placebo, change from baseline in seated AOBP SBP (MMRM) (50 mg QD, Week 8, Part 1, FAS): −9.58 mmHg | LSM Δ with Placebo, seated AOBP DBP (MMRM) (50 mg QD, Week 8, Part 1, FAS): −5.46 mmHg | Modelled (MMRM) LSM (SEM) change from baseline, seated AOBP DBP (50 mg QD, Week 8, Part 1, FAS): −7.09 (1.70) mmHg | Modelled (MMRM) LSM (SEM) change from baseline, seated AOBP SBP (50 mg QD, Week 8, Part 1, FAS): −13.69 (2.67) mmHg | Seated AOBP DBP change from baseline (CFB), Mean (SD) (50 mg QD, Week 8, Part 1, FAS): −8.05 (9.13) mmHg | Seated AOBP DBP, Mean (SD) (50 mg QD, Week 8, Part 1, FAS): 76.82 (9.82) mmHg | Seated AOBP SBP change from baseline (CFB), Mean (SD) (50 mg QD, Week 8, Part 1, FAS): −13.18 (17.17) mmHg | Seated AOBP SBP, Mean (SD) (50 mg QD, Week 8, Part 1, FAS): 128.64 (13.69) mmHg | Subjects with seated AOBP SBP/DBP ≤130/80 mmHg: No (50 mg QD, Week 8, Part 1, FAS): 16 (57.1) n (%) | Subjects with seated AOBP SBP/DBP ≤130/80 mmHg: Yes (50 mg QD, Week 8, Part 1, FAS): 12 (42.9) n (%) | Modelled (MMRM) LSM (SEM) change from baseline, seated AOBP DBP (100 mg QD Part 1, Week 4, Parts 1 & 2 model, FAS): −5.88 (1.49) mmHg | Modelled (MMRM) LSM (SEM) change from baseline, seated AOBP DBP [1]: −4.57 (1.53) mmHg | Modelled (MMRM) LSM (SEM) change from baseline, seated AOBP SBP [1]: −12.08 (2.68) mmHg
